Source: patent US8309545B2, “Benzofuran potassium channel blockers and uses thereof” (Bionomics Limited, priority 2006, dated 2012)

Target: T1, human Kv1.3 ion channel (Homo sapiens, UniProt P22001)
T1 construct: Human Jurkat cells (which endogenously express hKv1.3) were used in place of rat L929 cells; endogenous in cells; host or cells: Human Jurkat cells
Assay: Inhibition of Kv1.3 currents, planar patch clamp in Jurkat cells
Type: cell-based
Details: Human Jurkat cells (endogenous hKv1.3), averaged dose response data from 3 or more cells
Procedure: Potency of compounds to inhibit the human Kv1.3 ion channel were determined as follows:
EC50 values for inhibition of Kv1.3 currents were determined by the method according to Schmitz et al (2005) Molecular Pharmacology 68, 1254-1270 with the following differences: • 1. Human Jurkat cells (which endogenously express hKv1.3) were used in place of rat L929 cells. • 2. All electrophysiology was performed using planar patch clamp (Port-A-Patch, Nanion Technologies Gmbh, Munich) in contrast to conventional patch clamp. • 3. EC50 values shown were determined from averaged dose response data obtained from 3 or more cells.

T1 sequence (P22001 whole entry): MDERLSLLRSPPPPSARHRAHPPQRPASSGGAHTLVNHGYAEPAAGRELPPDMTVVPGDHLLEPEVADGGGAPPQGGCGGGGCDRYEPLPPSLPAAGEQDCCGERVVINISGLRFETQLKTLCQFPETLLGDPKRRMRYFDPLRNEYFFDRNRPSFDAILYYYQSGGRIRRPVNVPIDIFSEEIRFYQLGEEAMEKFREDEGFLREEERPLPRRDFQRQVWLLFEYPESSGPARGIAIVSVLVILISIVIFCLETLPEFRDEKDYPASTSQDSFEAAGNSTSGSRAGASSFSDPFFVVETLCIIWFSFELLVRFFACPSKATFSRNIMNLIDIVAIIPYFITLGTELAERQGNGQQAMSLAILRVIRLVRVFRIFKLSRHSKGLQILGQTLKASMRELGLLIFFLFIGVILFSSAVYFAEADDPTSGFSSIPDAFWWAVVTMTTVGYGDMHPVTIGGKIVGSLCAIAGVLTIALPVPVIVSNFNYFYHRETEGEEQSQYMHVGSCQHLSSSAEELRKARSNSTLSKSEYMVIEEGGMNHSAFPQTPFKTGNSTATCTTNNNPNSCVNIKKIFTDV

SMILES | EC50 [nM]
CC(=O)c1c(OCCNC2CCCC2)c(OCCC(C)c2ccccc2)c2occc2c1C (centres unmarked) [Example 53, 1-[6-(2-Cyclopentylamino-ethoxy)-4-methyl-7-(3-phenyl-butoxy)-benzofuran-5-yl]-ethanone] | 23
Cc1cc(=O)c2c(C)c3ccoc3c(OC[C@H]3C[C@H]3c3ccccc3)c2o1 (racemic) [Example 59a, rac-4,7-Dimethyl-9-(1S,2R-2-phenyl-cyclopropylmethoxy)-furo[3,2-g]chromen-5-one] | 215
Cc1cc(=O)c2c(C)c3ccoc3c(OC[C@H]3C[C@@H]3c3ccccc3)c2o1 (racemic) [Example 58a, rac-4,7-Dimethyl-9-(1S,2S-2-phenyl-cyclopropylmethoxy)-furo[3,2-g]chromen-5-one] | 165
CC(=O)c1c(OCCCCN2CCOCC2)c(OCCCc2ccccc2)c2occc2c1C [28 b)] | 640
CC(=O)c1c(OCCN2CCOCC2)c(OCCCc2ccccc2)c2occc2c1C [Example 19, 5-Acetyl-6-(2-morpholinoethoxy)-4-methyl-7-(3-phenylpropoxy)benzofuran] | 51
CC(=O)c1cc2ccoc2cc1OCCCc1ccccc1 [Example 3, 5-Acetyl-6-(3-phenylpropoxy)benzofuran] | 184
CC(=O)c1c(OCCNC2CCCC2)c(OCCCc2ccc(F)cc2)c2occc2c1C [Example 48, 1-[6-(2-Cyclopentylamino-ethoxy)-4-methyl-7-(3-(4-fluoro-phenyl)-propoxy)-benzofuran-5-yl]-ethanone] | 47
CC(=O)c1cc2ccoc2c(OCCCc2ccccc2)c1OCCN1CCOCC1 [22 c)] | 610
CC(=O)c1c(OCCN2CCOCC2)c(OCCC(C)(C)c2ccccc2)c2occc2c1C (racemic) [Example 46b, rac-1-[4-Methyl-7-(3-methyl-3-phenyl-butoxy)-6-(2-morpholin-4-yl-ethoxy)-benzofuran-5-yl]ethanone] | 198
CC(=O)c1c(OCCNC2CCCC2)c(OCCC(C)c2ccc(F)cc2)c2occc2c1C (centres unmarked) [Example 45b, 5-Acetyl-7-(3-[4-fluorophenyl]butoxy)-4-methyl-6-(2-Cyclopentylamino-ethoxy)benzofuran] | 43
CC(=O)c1c(OCCN2CCOCC2)c(OCC(C)(C)Cc2ccccc2)c2occc2c1C [Example 56b, 5-Acetyl-7-(2,2-dimethyl-3-phenylpropoxy)-4-methyl-6-(2-morpholinoethoxy)benzofuran] | 362
Cc1cc(=O)c2c(C)c3ccoc3c(OCCCc3ccccc3)c2o1 [18 a)] | 114
Cc1cc(=O)c2c(C)c3ccoc3c(OCCOc3ccc(F)cc3)c2o1 [Example 43b, 9-[2-(4-Fluoro-phenoxy)-ethoxy]-4,7-dimethyl-furo[3,2-g]chromen-5-one] | 229
CC(=O)c1c(OCCNC2CCCC2)c(OCCCc2ccccc2)c2occc2c1C [Example 32, 1-[6-(2-Cyclopentylamino-ethoxy)-4-methyl-7-(3-phenyl-propoxy)-benzofuran-5-yl]-ethanone] | 49
CC(=O)c1c(C)c2c(c(OCCC(C)c3ccc(F)cc3)c1OCCNC1CCCC1)OCC2 (centres unmarked) [Example 67, 1-{6-(2-Cyclopentylamino-ethoxy)-7-[3-RS-(4-fluorophenyl)-butoxy]-4-methyl-2,3-dihydro-benzofuran-5-yl}-ethanone] | 8
CC(=O)c1c(OCCN2CCOCC2)c(OCCOc2ccc(F)cc2)c2occc2c1C [Example 43e, 1-[7-[2-(4-Fluoro-phenoxy)-ethoxy]-4-methyl-6-(2-morpholin-4-yl-ethoxy)-benzofuran-5-yl]-ethanone] | 286
CC(=O)c1c(OCCCc2nnn[nH]2)c(OCCCc2ccccc2)c2occc2c1C [Example 54b, 5-Acetyl-6-(3-(1H-tetrazol-5-yl)-propoxy)-4-methyl-7-(3-phenylpropoxy)benzofuran] | 1600
CC(=O)c1c(OCCN2CCOCC2)c(OC/C=C/c2ccccc2)c2occc2c1C [Example 61, 1-[4-Methyl-6-(2-morpholin-4-yl-ethoxy)-7-(E-3-phenyl-allyloxy)-benzofuran-5-yl]-ethanone] | 221
CC(=O)c1c(OCCN2CCOCC2)c(OCCC(C)c2ccccc2)c2occc2c1C (centres unmarked) [Example 50b, 1-[4-Methyl-6-(2-morpholin-4-yl-ethoxy)-7-(3-phenyl-butoxy)-benzofuran-5-yl]-ethanone] | 16
CC(=O)c1c(OCC(=O)N2CCOCC2)c(OCCCc2ccccc2)c2occc2c1C [Example 42, 2-[5-Acetyl-4-methyl-7-(3-phenyl-propoxy)-benzofuran-6-yloxy]-1-morpholin-4-yl-ethanone] | 480
CC(=O)c1c(OCCN2CCOCC2)c(OCCCc2ccccc2)c2oc(Cl)cc2c1C [Example 41, 1-[2-Chloro-4-methyl-6-(2-morpholin-4-yl-ethoxy)-7-(3-phenyl-propoxy)-benzofuran-5-yl]-ethanone] | 215
CC(=O)c1c(OCCN2CCOCC2)c(OC[C@H]2C[C@@H]2c2ccccc2)c2occc2c1C [Example 58c, 1-[4-Methyl-6-(2-morpholin-4-yl-ethoxy)-7-(1S,2S-2-phenyl-cyclopropylmethoxy)-benzofuran-5-yl]-ethanone] | 100
CC(=O)c1c(O)c(OCCCc2ccc(F)cc2)c2occc2c1C [Example 47a, 5-Acetyl-7-(3-(4-fluorophenyl)propoxy)-6-hydroxy-4-methylbenzofuran] | 531
CC(=O)c1c(O)c(OC[C@H]2C[C@@H]2c2ccccc2)c2occc2c1C (racemic) [Example 58b, rac-1-[6-Hydroxy-4-methyl-7-(1S,2S-2-phenyl-cyclopropylmethoxy)-benzofuran-5-yl]-ethanone] | 512

Second part, the compound after the results:

EC50 [nM] | SMILES
160 | CC(=O)c1c(OCCn2nnnc2N)c(OCCCc2ccccc2)c2occc2c1C [21 b)]
680 | COc1c(C(C)=O)c(OCCSc2ccccc2)c(OC)c2occc12 [Example 7, 5-Acetyl-4,7-dimethoxy-6-(2-(thiophenoxy)ethoxy)benzofuran]
23 | CC(=O)c1c(OCCn2nnc(N)n2)c(OCCCc2ccccc2)c2occc2c1C [21 a)]
480 | COc1c(C(C)=O)c(OCCCc2ccccc2)c(CN(C)C)c2occc12 [13 b)]
160 | COc1c(C(C)=O)c(OCCN(C)C)c(OCCCc2ccccc2)c2occc12 [15 b)]
340 | COc1c(C(C)=O)c(O)c(OCCNc2ccccc2)c2occc12 [Example 64c, 1-[6-Hydroxy-4-methoxy-7-(2-phenylamino-ethoxy)-benzofuran-5-yl]-ethanone]
750 | COc1c(C(C)=O)c(OCCCSc2ccccc2)c(OC)c2occc12 [Example 8, 5-Acetyl-4,7-dimethoxy-6-(3-(phenylthio)propoxy)benzofuran]
110 | COc1c(C(C)=O)c(OCCN2CCOCC2)c(OCCCc2ccccc2)c2occc12 [Example 16, 5-Acetyl-6-(2-morpholinoethoxy)-4-methoxy-7-(3-phenylpropoxy)benzofuran]
6600 | CC(=O)c1c(OCCc2nnn[nH]2)c(OCCCc2ccccc2)c2occc2c1C [Example 55, 5-Acetyl-6-(3-(1H-tetrazol-5-yl)-ethoxy)-4-methyl-7-(3-phenylpropoxy)benzofuran]
880 | COc1c(C(C)=O)c(OCCOc2ccccc2)c(OC)c2occc12 [5 b)]
140 | CC(=O)c1c(OCCN2CCN(C)CC2)c(OCCCc2ccccc2)c2occc2c1C [Example 26]
690 | COc1c(C(C)=O)c(OCCCNc2ccccc2)c(OC)c2occc12 [Example 12, 5-Acetyl-4,7-dimethoxy-6-(3-(phenylamino)propoxy)benzofuran]
66 | CC(=O)c1c(OCCc2ccccn2)c(OCCCc2ccccc2)c2occc2c1C [Example 40, 5-Acetyl-4-methyl-7-(3-phenylpropoxy)-6-(2-pyridin-2-yl-ethoxy)benzofuran]
2420 | COc1c(C(C)=O)c(OCCS(=O)(=O)c2ccccc2)c(OC)c2occc12 [Example 9, 5-Acetyl-4,7-dimethoxy-6-(2-(benzenesulfonyl)ethoxy)benzofuran]
74 | CC(=O)c1c(OCCn2cncn2)c(OCCCc2ccccc2)c2occc2c1C [Example 37, 1-[4-Methyl-7-(3-phenyl-propoxy)-6-(2-[1,2,4]triazol-1-yl-ethoxy)-benzofuran-5-yl]-ethanone]
420 | CC(=O)c1c(OCCN(C)C)c(OCCCc2ccccc2)c2occc2c1C [18 c)]
420 | COc1c(C(C)=O)c(OCCCCOc2ccccc2)c(OC)c2occc12 [Example 2]
225 | COc1c(OCCCc2ccccc2)c(C(C)=O)c(C)c2ccoc12 [4 c)]
100 | CC(=O)c1c(OCCn2nccn2)c(OCCCc2ccccc2)c2occc2c1C [Example 35, 1-[4-Methyl-7-(3-phenyl-propoxy)-6-(2-[1,2,3]triazol-2-yl-ethoxy)-benzofuran-5-yl]ethanone]
910 | COc1c(C(C)=O)c(OCCCCOc2ccccc2)c(OCCN2CCOCC2)c2occc12 [14 c)]
81 | CC(=O)c1c(OCCOc2cnccn2)c(OCCCc2ccccc2)c2occc2c1C [Example 31b, 1-{4-Methyl-7-(3-phenyl-propoxy)-6-[2-(pyrazin-2-yloxy)-ethoxy]-benzofuran-5-yl}-ethanone]
980 | COc1c(C(C)=O)c(OCCNc2ccccc2)c(OC)c2occc12 [Example 11, 5-Acetyl-4,7-dimethoxy-6-(2-(phenylamino)ethoxy)benzofuran]
290 | COc1c(C(C)=O)c(OCCCc2ccccc2)c(OC)c2occc12 [Example 1, 5-Acetyl-4,7-dimethoxy-6-(3-(phenyl)propoxy)benzofuran]
